Laboratory results as given in patent publication US20210261642A1, “SOLUBILITY OF GLP-1 PEPTIDE” (Novo Nordisk A/S, priority 2017, published 2021).

Assay: Assay (I): Determination of Solubility (96-well plate, pH 3.0-11.0, organic solvent 0-70% w/w, UV absorption at 280 nm)
Type: physicochemical
Conditions: Method 1
Method: Assay (I): Determination of Solubility
96-Well Plate Preparation
96-well plates containing target peptide in a solid form were prepared in one of two ways:
Method 1 (evaporation): Addition of 100 μl stock solution of said peptide at a concentration of 4-6 mg/ml to each well of a 96-well half area plate (150 μl well size). Subsequently the solvent was evaporated by applying a vacuum until the solvent was completely removed.
Method 2 (precipitation): Addition of a certain volume of a stock solution of said peptide containing to each well of a 96-well half area plate followed by the addition of a certain volume of concentrated phosphoric acid to obtain a pH of 4.6 followed by addition of a certain volume of ethanol resulting in a final ethanol concentration of 20% v/v. Subsequently the plate was stored at 4° C. for 1 h and then centrifuged at 4,000 rpm for 20 min. Finally the supernatant was removed. The concentration of the stock solution was chosen in a way that the final amount of peptide after supernatant removal was >0.4 mg per well.
In both cases the stock solution was prepared by adding de-ionized water to a certain amount of powder of said peptide followed by a stepwise addition of small amounts of a concentrated sodium hydroxide solution until said peptide was completely in solution.
To determine solubility of a target peptide at different pH and organic solvent concentrations, two different buffer systems were used in independent experiments to cover the whole range from pH 3.0 to pH 11.0. Buffer system 1 covers pH 3.0-7.5 and buffer system 2 covers pH 7.5-11.0. For each buffer system 96 different solvent compositions were premixed in the following way: • 1. A low pH buffer (adjusted to either pH 3.0 or pH 7.5) and a high pH buffer (adjusted to either pH 7.5 or pH 11.0) were mixed at 8 different ratios to obtain values between pH 3.0 and pH 7.5 or pH 7.5 and pH 11.0, respectively. The total volume after mixing was 300 μl. • 2. 12 different amounts of organic solvent were then added to these buffers to obtain organic solvent (e.g. ethanol) concentrations between 0 and 70% w/w. • 3. Water was then added to obtain a total weight of 1.0 g of solvent in each well.
After preparing the 96 different solvent systems, 100 μl of each system was transferred to the 96-well plate containing the solid form of the target peptide (prepared as described in the section “96-well plate preparation”). The plate was then stored at a given temperature (between 5° C. and 70° C.) for a given time on a rotating shaker set to 400 rpm. At regular time intervals the plate was centrifuged (4,000 rpm for 10 min) and a 10 μl sample was taken from each well. The samples were then analysed by UV absorption at 280 nm for peptide quantification. Peptide concentration results are given as UV absorption at 280 nm of the sample subtracted UV absorption at 280 nm of a well comprising 10 μl water.
The buffers used were as follows: • Buffer system 1 (for the pH range from pH 3.0-7.5)
• Buffer system 2 (for the pH ranae from pH 7.5-11.0)
Solubility of liraglutide was determined using Assay (I) described herein. Liraglutide was prepared using Method 1 (evaporation) or Method 2 (precipitation) as described in subsection “96-well plate preparation”.

Structure (SMILES): CCCCCCCCCCCCCCCC(=O)N[C@@H](CCC(=O)NCCCC[C@H](NC(=O)[C@H](C)NC(=O)[C@H](C)NC(=O)[C@H](CCC(N)=O)NC(=O)CNC(=O)[C@H](CCC(=O)O)NC(=O)[C@H](CC(C)C)NC(=O)[C@H](Cc1ccc(O)cc1)NC(=O)[C@H](CO)NC(=O)[C@H](CO)NC(=O)[C@@H](NC(=O)[C@H](CC(=O)O)NC(=O)[C@H](CO)NC(=O)[C@@H](NC(=O)[C@H](Cc1ccccc1)NC(=O)[C@@H](NC(=O)CNC(=O)[C@H](CCC(=O)O)NC(=O)[C@H](C)NC(=O)[C@@H](N)Cc1cnc[nH]1)[C@@H](C)O)[C@@H](C)O)C(C)C)C(=O)N[C@@H](CCC(=O)O)C(=O)N[C@@H](Cc1ccccc1)C(=O)N[C@H](C(=O)N[C@@H](C)C(=O)N[C@@H](Cc1c[nH]c2ccccc12)C(=O)N[C@@H](CC(C)C)C(=O)N[C@H](C(=O)N[C@@H](CCCNC(=N)N)C(=O)NCC(=O)N[C@@H](CCCNC(=N)N)C(=O)NCC(=O)O)C(C)C)[C@@H](C)CC)C(=O)O [liraglutide, Arg34,Lys26-(N-epsilon-(gamma-L-glutamyl(N-alfa-hexadecanoyl)))-GLP-1(7-37)]
- Peptide concentration after 180 min (MeCN 50.9% w/w, pH 8.0, 5° C.): 2.2 mg/mL
- Peptide concentration after 24 h (MeCN 50.9% w/w, pH 8.0, 5° C.): >4.0 mg/mL
- Peptide concentration after 5 min (MeCN 50.9% w/w, pH 8.5, 5° C.): 0.6 mg/mL
- Peptide concentration after 180 min (MeCN 50.9% w/w, pH 8.5, 5° C.): 2.6 mg/mL
- Peptide concentration after 24 h (MeCN 50.9% w/w, pH 8.5, 5° C.): >4.0 mg/mL
- Peptide concentration after 5 min (MeCN 50.9% w/w, pH 9.0, 5° C.): 0.6 mg/mL
- Peptide concentration after 180 min (MeCN 50.9% w/w, pH 9.0, 5° C.): 2.0 mg/mL
- Peptide concentration after 24 h (MeCN 50.9% w/w, pH 9.0, 5° C.): >4.0 mg/mL
- Peptide concentration after 5 min (MeCN 50.9% w/w, pH 9.5, 5° C.): 1.0 mg/mL
- Peptide concentration after 180 min (MeCN 50.9% w/w, pH 9.5, 5° C.): 2.4 mg/mL
- Peptide concentration after 24 h (MeCN 50.9% w/w, pH 9.5, 5° C.): >4.0 mg/mL
- Peptide concentration after 5 min (MeCN 50.9% w/w, pH 10.0, 5° C.): 1.5 mg/mL
- Peptide concentration after 180 min (MeCN 50.9% w/w, pH 10.0, 5° C.): 2.6 mg/mL
- Peptide concentration after 24 h (MeCN 50.9% w/w, pH 10.0, 5° C.): >4.0 mg/mL
- Peptide concentration after 5 min (MeCN 50.9% w/w, pH 10.5, 5° C.): 0.9 mg/mL
- Peptide concentration after 180 min (MeCN 50.9% w/w, pH 10.5, 5° C.): 2.1 mg/mL
- Peptide concentration after 24 h (MeCN 50.9% w/w, pH 10.5, 5° C.): 3.8 mg/mL
- Peptide concentration after 5 min (MeCN 50.9% w/w, pH 11.0, 5° C.): 0.7 mg/mL
- Peptide concentration after 180 min (MeCN 50.9% w/w, pH 11.0, 5° C.): 2.2 mg/mL
- Peptide concentration after 24 h (MeCN 50.9% w/w, pH 11.0, 5° C.): >4.0 mg/mL
- Peptide concentration after 5 min (MeCN 57.3% w/w, pH 8.0, 5° C.): 0.5 mg/mL
- Peptide concentration after 180 min (MeCN 57.3% w/w, pH 8.0, 5° C.): 1.6 mg/mL
- Peptide concentration after 24 h (MeCN 57.3% w/w, pH 8.0, 5° C.): 3.4 mg/mL
- Peptide concentration after 5 min (MeCN 57.3% w/w, pH 8.5, 5° C.): 0.5 mg/mL
- Peptide concentration after 180 min (MeCN 57.3% w/w, pH 8.5, 5° C.): 1.6 mg/mL
- Peptide concentration after 24 h (MeCN 57.3% w/w, pH 8.5, 5° C.): 3.7 mg/mL
- Peptide concentration after 5 min (MeCN 57.3% w/w, pH 9.0, 5° C.): 0.5 mg/mL
- Peptide concentration after 180 min (MeCN 57.3% w/w, pH 9.0, 5° C.): 1.9 mg/mL
- Peptide concentration after 24 h (MeCN 57.3% w/w, pH 9.0, 5° C.): >4.0 mg/mL
- Peptide concentration after 5 min (MeCN 57.3% w/w, pH 9.5, 5° C.): 1.0 mg/mL
- Peptide concentration after 180 min (MeCN 57.3% w/w, pH 9.5, 5° C.): 2.0 mg/mL
- Peptide concentration after 24 h (MeCN 57.3% w/w, pH 9.5, 5° C.): 4.0 mg/mL
- Peptide concentration after 5 min (MeCN 57.3% w/w, pH 10.0, 5° C.): 1.4 mg/mL
- Peptide concentration after 180 min (MeCN 57.3% w/w, pH 10.0, 5° C.): 1.6 mg/mL
- Peptide concentration after 24 h (MeCN 57.3% w/w, pH 10.0, 5° C.): 1.8 mg/mL
- Peptide concentration after 5 min (MeCN 57.3% w/w, pH 10.5, 5° C.): 1.1 mg/mL
- Peptide concentration after 180 min (MeCN 57.3% w/w, pH 10.5, 5° C.): 1.1 mg/mL
- Peptide concentration after 24 h (MeCN 57.3% w/w, pH 10.5, 5° C.): 1.6 mg/mL
- Peptide concentration after 5 min (MeCN 57.3% w/w, pH 11.0, 5° C.): 0.9 mg/mL
- Peptide concentration after 180 min (MeCN 57.3% w/w, pH 11.0, 5° C.): 1.4 mg/mL
- Peptide concentration after 24 h (MeCN 57.3% w/w, pH 11.0, 5° C.): 2.6 mg/mL
- Peptide concentration after 5 min (MeCN 63.6% w/w, pH 8.0, 5° C.): 0.3 mg/mL
- Peptide concentration after 180 min (MeCN 63.6% w/w, pH 8.0, 5° C.): 0.6 mg/mL
- Peptide concentration after 24 h (MeCN 63.6% w/w, pH 8.0, 5° C.): 2.0 mg/mL
- Peptide concentration after 5 min (MeCN 63.6% w/w, pH 8.5, 5° C.): 0.6 mg/mL
- Peptide concentration after 180 min (MeCN 63.6% w/w, pH 8.5, 5° C.): 0.8 mg/mL
- Peptide concentration after 24 h (MeCN 63.6% w/w, pH 8.5, 5° C.): 2.1 mg/mL
- Peptide concentration after 5 min (MeCN 63.6% w/w, pH 9.0, 5° C.): 1.4 mg/mL
- Peptide concentration after 180 min (MeCN 63.6% w/w, pH 9.0, 5° C.): 0.9 mg/mL
- Peptide concentration after 24 h (MeCN 63.6% w/w, pH 9.0, 5° C.): 2.6 mg/mL
- Peptide concentration after 5 min (MeCN 63.6% w/w, pH 9.5, 5° C.): 0.2 mg/mL
